Patent US6914045B2, “Glycopeptide antibiotics” (Wyeth Holdings Corporation, priority 2001, dated 2005)
Values after ≈ are worked out from the molar mass of the structure shown.

How the values were obtained:
Enterococcus sp. = assay: in vitro antibacterial evaluation, MIC by broth dilution; format: cell-based; details: broth dilution, 18 hours at 35° C.
Procedure, shortened: (§1)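 Broth dilution per NCCLS M7-A2 in Mueller-Hinton II medium, inoculum 5×10^5 CFU/mL, antibiotic range 64-0.06 μg/mL. MIC taken as lowest concentration inhibiting growth; Gram-positive panel includes recent clinical isolates resistant to methicillin, penicillin and/or vancomycin.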

Staphylococcus sp. = assay: as above; format: cell-based; details: broth dilution, 18 hours at 35° C.
Procedure, shortened: as §1

Streptococcus sp. = assay: as above; format: cell-based; details: broth dilution, 18 hours at 35° C.
Procedure, shortened: as §1

[1] = test system: Staphylococcus aureus-SMITH (GC 4543); assay: acute lethal infection in mice; format: in vivo; details: acute lethal infection, female CD-1 mice, intraperitoneal challenge, intravenous 30 min. after infection, 7 day survival
Procedure, shortened: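 Protocol: bacteria suspended in trypticase soy broth or hog gastric mucin injected ip into female CD-1 mice at a level killing untreated controls in 24-48 hr; compound given iv in saline or 5% dextrose 30 min post-challenge; five mice per dose; ED50 derived from pooled 7 day survival of three runs.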

[2] = clinical pathology (serum clinical chemistry) in mice; format: in vivo; details: CD-1 mice, 20 mg/kg intravenously daily for 9 days, sera day 10
Experimental: 20-day-old CD-1 mice were divided into a vehicle control group (5 mice) and a treatment group (5 mice). Samples of glycopeptide antibiotics were administered at 20 mg/kg intravenously daily for 9 days.

[3] = anatomic pathology (histopathology of heart and kidney) in mice; format: in vivo; details: CD-1 mice, 20 mg/kg intravenously daily for 9 days, necropsy day 10, microscopic histopathology
Experimental: Samples of tissues from necropsied mice were formalin-fixed, paraffin-embedded, sectioned, stained with hematoxylin and eosin, and examined microscopically. Histopathologic findings were recorded. These findings were subjectively graded on a scale corresponding to slight, mild, moderate, marked and severe as compared to untreated controls.

Escherichia coli = assay: in vitro antibacterial evaluation, MIC by broth dilution; format: cell-based; details: 18 hours at 35° C.

COc1ccc2cc(COCC3OC(OC4C(CO)OC(Oc5ccc(CC6NC(=O)C(C(C)c7ccccc7)NC(=O)CNC(=O)C(CO)NC(=O)C(CC7CNC(=N)N7C7OC(CO)C(O)C(O)C7O)NC(=O)C(CC7CNC(=N)N7)NC6=O)cc5)C(O)C4O)C(O)C(O)C3O)ccc2c1 (stereo not drawn) [Example 245, Cyclo[3-(2-iminoimidazolidin-4-yl)alanyl-3-(3-hexopyranosyl-2-iminoimidazolidin-4-yl)-alanylserylglycyl-β-methylphenylalanyl-O-[4-O-[6-O-[(6-methoxy-2-naphthyl)methyl]-hexopyranosyl]hexopyranosyl]tyrosyl]]
MIC Enterococcus avium (GC 4558) (Enterococcus sp.): 16 mg/L (≈ 11.2 µM) | MIC Enterococcus faecalis (ATCC 29212) (Enterococcus sp.): 32 mg/L (≈ 22.3 µM) | MIC Enterococcus faecalis (GC 2242) (Enterococcus sp.): 16 mg/L (≈ 11.2 µM) | MIC Enterococcus faecalis (GC 2691) (Enterococcus sp.): 32 mg/L (≈ 22.3 µM) | MIC Enterococcus faecalis (GC 3059) (Enterococcus sp.): 16 mg/L (≈ 11.2 µM) | MIC Enterococcus faecalis (GC 4552) (Enterococcus sp.): 16 mg/L (≈ 11.2 µM) | MIC Enterococcus faecalis (GC 4553) (Enterococcus sp.): 16 mg/L (≈ 11.2 µM) | MIC Enterococcus faecalis (GC 4554) (Enterococcus sp.): 32 mg/L (≈ 22.3 µM) | MIC Enterococcus faecalis (GC 6189) (Enterococcus sp.): 32 mg/L (≈ 22.3 µM) | MIC Enterococcus faecium (GC 2243) (Enterococcus sp.): 16 mg/L (≈ 11.2 µM) | MIC Enterococcus faecium (GC 4556) (Enterococcus sp.): 16 mg/L (≈ 11.2 µM) | MIC Enterococcus faecium (GC 4557) (Enterococcus sp.): 4 mg/L (≈ 2.79 µM) | MIC Enterococcus faecalis (ATCC 29212) (Enterococcus sp.; strain ATCC 29212): 32 mg/L (≈ 22.3 µM) | MIC Enterococcus faecium (GC 2243) (Enterococcus sp.; strain GC 2243): 16 mg/L (≈ 11.2 µM) | MIC Enterococcus faecalis (GC 4552) (Enterococcus sp.; strain GC 4552): 16 mg/L (≈ 11.2 µM) | MIC Enterococcus faecalis (GC 4553) (Enterococcus sp.; strain GC 4553): 16 mg/L (≈ 11.2 µM) | MIC Enterococcus faecalis (GC 4554) (Enterococcus sp.; strain GC 4554): 32 mg/L (≈ 22.3 µM) | MIC Enterococcus faecium (GC 4556) (Enterococcus sp.; strain GC 4556): 16 mg/L (≈ 11.2 µM) | MIC Enterococcus faecium (GC 4557) (Enterococcus sp.; strain GC 4557): 4 mg/L (≈ 2.79 µM) | MIC Enterococcus avium (GC 4558) (Enterococcus sp.; strain GC 4558): 16 mg/L (≈ 11.2 µM) | MIC Enterococcus faecalis (GC 6189) (Enterococcus sp.; strain GC 6189): 32 mg/L (≈ 22.3 µM) | MIC Enterococcus faecalis (GC 2242) (Enterococcus sp.; inoculum 5×10^5 CFU/mL, strain GC 2242): 16 mg/L (≈ 11.2 µM) | MIC Enterococcus faecalis (GC 2691) (Enterococcus sp.; inoculum 5×10^5 CFU/mL, strain GC 2691): 32 mg/L (≈ 22.3 µM) | MIC Enterococcus faecalis (GC 3059) (Enterococcus sp.; inoculum 5×10^5 CFU/mL, strain GC 3059): 16 mg/L (≈ 11.2 µM) | MIC Coagulase Negative Staphylococcus (GC 4547) (Staphylococcus sp.): 4 mg/L (≈ 2.79 µM) | MIC Coagulase Negative Staphylococcus (GC 4548) (Staphylococcus sp.): 2 mg/L (≈ 1.4 µM) | MIC Coagulase Negative Staphylococcus (GC 4549) (Staphylococcus sp.): 1 mg/L (≈ 0.698 µM) | MIC Coagulase Negative Staphylococcus (GC 4551) (Staphylococcus sp.): 8 mg/L (≈ 5.58 µM) | MIC Coagulase Negative Staphylococcus (GC 6257) (Staphylococcus sp.): 2 mg/L (≈ 1.4 µM) | MIC Staphylococcus aureus (ATCC 29213) (Staphylococcus sp.): 4 mg/L (≈ 2.79 µM) | MIC Staphylococcus aureus (GC 1131) (Staphylococcus sp.): 8 mg/L (≈ 5.58 µM) | MIC Staphylococcus aureus (GC 3051) (Staphylococcus sp.): 4 mg/L (≈ 2.79 µM) | MIC Staphylococcus aureus (GC 3053) (Staphylococcus sp.): 4 mg/L (≈ 2.79 µM) | MIC Staphylococcus aureus (GC 4541) (Staphylococcus sp.): 4 mg/L (≈ 2.79 µM) | MIC Staphylococcus aureus (GC 4542) (Staphylococcus sp.): 4 mg/L (≈ 2.79 µM) | MIC Staphylococcus aureus (GC 4544) (Staphylococcus sp.): 8 mg/L (≈ 5.58 µM) | MIC Staphylococcus aureus (GC 4545) (Staphylococcus sp.): 4 mg/L (≈ 2.79 µM) | MIC Staphylococcus aureus-SMITH (GC 4543) (Staphylococcus sp.): 4 mg/L (≈ 2.79 µM) | MIC Staphylococcus haemolyticus (GC 4546) (Staphylococcus sp.): 4 mg/L (≈ 2.79 µM) | MIC Staphylococcus aureus (ATCC 29213) (Staphylococcus sp.; strain ATCC 29213): 4 mg/L (≈ 2.79 µM) | MIC Staphylococcus aureus (GC 1131) (Staphylococcus sp.; strain GC 1131): 8 mg/L (≈ 5.58 µM) | MIC Staphylococcus aureus (GC 3051) (Staphylococcus sp.; strain GC 3051): 4 mg/L (≈ 2.79 µM) | MIC Staphylococcus aureus (GC 3053) (Staphylococcus sp.; strain GC 3053): 4 mg/L (≈ 2.79 µM) | MIC Staphylococcus aureus (GC 4541) (Staphylococcus sp.; strain GC 4541): 4 mg/L (≈ 2.79 µM) | MIC Staphylococcus aureus (GC 4542) (Staphylococcus sp.; strain GC 4542): 4 mg/L (≈ 2.79 µM) | MIC Staphylococcus aureus-SMITH (GC 4543) (Staphylococcus sp.; strain GC 4543): 4 mg/L (≈ 2.79 µM) | MIC Staphylococcus aureus (GC 4544) (Staphylococcus sp.; strain GC 4544): 8 mg/L (≈ 5.58 µM) | MIC Staphylococcus aureus (GC 4545) (Staphylococcus sp.; strain GC 4545): 4 mg/L (≈ 2.79 µM) | MIC Staphylococcus haemolyticus (GC 4546) (Staphylococcus sp.; strain GC 4546): 4 mg/L (≈ 2.79 µM) | MIC Coagulase Negative Staphylococcus (GC 4547) (Staphylococcus sp.; strain GC 4547): 4 mg/L (≈ 2.79 µM) | MIC Coagulase Negative Staphylococcus (GC 4548) (Staphylococcus sp.; strain GC 4548): 2 mg/L (≈ 1.4 µM) | MIC Coagulase Negative Staphylococcus (GC 4549) (Staphylococcus sp.; strain GC 4549): 1 mg/L (≈ 0.698 µM) | MIC Coagulase Negative Staphylococcus (GC 4551) (Staphylococcus sp.; strain GC 4551): 8 mg/L (≈ 5.58 µM) | MIC Coagulase Negative Staphylococcus (GC 6257) (Staphylococcus sp.; strain GC 6257): 2 mg/L (≈ 1.4 µM) | MIC Streptococcus agalactiae (GC 4564) (Streptococcus sp.): 4 mg/L (≈ 2.79 µM) | MIC Streptococcus pneumoniae (ATCC 6301) (Streptococcus sp.): 2 mg/L (≈ 1.4 µM) | MIC Streptococcus pneumoniae (GC 1894) (Streptococcus sp.): 1 mg/L (≈ 0.698 µM) | MIC Streptococcus pneumoniae (GC 4565) (Streptococcus sp.): 4 mg/L (≈ 2.79 µM) | MIC Streptococcus pyogenes (GC 4563) (Streptococcus sp.): 4 mg/L (≈ 2.79 µM) | MIC Streptococcus pneumoniae (ATCC 6301) (Streptococcus sp.; inoculum 5×10^5 CFU/mL, strain ATCC 6301): 2 mg/L (≈ 1.4 µM) | MIC Streptococcus pneumoniae (GC 1894) (Streptococcus sp.; inoculum 5×10^5 CFU/mL, strain GC 1894): 1 mg/L (≈ 0.698 µM) | MIC Streptococcus pyogenes (GC 4563) (Streptococcus sp.; inoculum 5×10^5 CFU/mL, strain GC 4563): 4 mg/L (≈ 2.79 µM) | MIC Streptococcus agalactiae (GC 4564) (Streptococcus sp.; inoculum 5×10^5 CFU/mL, strain GC 4564): 4 mg/L (≈ 2.79 µM) | MIC Streptococcus pneumoniae (GC 4565) (Streptococcus sp.; inoculum 5×10^5 CFU/mL, strain GC 4565): 4 mg/L (≈ 2.79 µM) | median effective dose (ED50), Staphylococcus aureus-SMITH (GC 4543) [1]: 4 mg/kg | Clinical Chemistry (Day 10) % of Control, BUN [2]: +160% | Clinical Chemistry (Day 10) % of Control, Creatinine [2]: +138% | Anatomical Pathology (Day 10), Heart [3]: 0 | Anatomical Pathology (Day 10), Kidney [3]: +++ | MIC Escherichia coli (ATCC 25922) (Escherichia coli): 64 mg/L (≈ 44.6 µM) | MIC Escherichia coli (GC 4559) (Escherichia coli): 32 mg/L (≈ 22.3 µM) | MIC Escherichia coli (GC 4560) (Escherichia coli): 4 mg/L (≈ 2.79 µM)
